Where two headings read alike, the source gives them in different places.
How the values were obtained:
[1] = biological target: T1, full length N-terminally FLAG-tagged PARP1 (Homo sapiens, UniProt P09874); assay: PARP1 biochemical DELFIA assay (auto-PARylation); set-up: recombinant full length human N-terminally FLAG-tagged PARP1
[2] = biological target: T2, N-terminally FLAG-tagged PARP2 (amino acids 1-583) (Homo sapiens, UniProt Q9UGN5); assay: PARP2 probe displacement HTRF assay; format: binding; settings: binned Kd
T2 construct: N-terminally FLAG-tagged PARP2 (amino acids 1-583)
Description: Data analysis was performed identical as for PARP1.

[3] = biological target: T1, full length N-terminally FLAG-tagged PARP1; assay: PARP1 probe displacement HTRF assay; settings: for Selectivity: PARP1 over PARP2, ratio Kd (PARP2)/Kd (PARP1); for Kd: binned Kd
[4] = binned IC50, biochemical auto-PARylation assay
[5] = read-out: PARP1 HTRF, probe displacement HTRF
[6] = binned IC50, PARP1 biochemical DELFIA assay
[7] = read-out: PARP1 HTRF, PARP1 probe displacement HTRF

T2 sequence (Q9UGN5 whole entry, the tested form may be a part): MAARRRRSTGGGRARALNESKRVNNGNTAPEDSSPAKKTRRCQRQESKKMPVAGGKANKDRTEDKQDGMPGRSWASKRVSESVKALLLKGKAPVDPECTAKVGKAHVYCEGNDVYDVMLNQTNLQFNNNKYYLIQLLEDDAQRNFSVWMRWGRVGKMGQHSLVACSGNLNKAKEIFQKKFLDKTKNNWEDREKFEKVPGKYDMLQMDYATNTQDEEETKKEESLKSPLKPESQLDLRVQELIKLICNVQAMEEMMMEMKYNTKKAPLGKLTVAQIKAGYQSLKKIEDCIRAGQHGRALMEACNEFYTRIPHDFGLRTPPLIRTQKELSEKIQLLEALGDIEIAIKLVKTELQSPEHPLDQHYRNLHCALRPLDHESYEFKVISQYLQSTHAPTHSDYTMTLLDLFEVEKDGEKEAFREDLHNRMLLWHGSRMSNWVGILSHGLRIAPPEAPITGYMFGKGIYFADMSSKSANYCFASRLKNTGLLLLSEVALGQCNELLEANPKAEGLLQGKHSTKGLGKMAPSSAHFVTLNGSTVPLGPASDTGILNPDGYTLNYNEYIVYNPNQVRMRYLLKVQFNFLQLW
T1 sequence (P09874 whole entry, the tested form may be a part): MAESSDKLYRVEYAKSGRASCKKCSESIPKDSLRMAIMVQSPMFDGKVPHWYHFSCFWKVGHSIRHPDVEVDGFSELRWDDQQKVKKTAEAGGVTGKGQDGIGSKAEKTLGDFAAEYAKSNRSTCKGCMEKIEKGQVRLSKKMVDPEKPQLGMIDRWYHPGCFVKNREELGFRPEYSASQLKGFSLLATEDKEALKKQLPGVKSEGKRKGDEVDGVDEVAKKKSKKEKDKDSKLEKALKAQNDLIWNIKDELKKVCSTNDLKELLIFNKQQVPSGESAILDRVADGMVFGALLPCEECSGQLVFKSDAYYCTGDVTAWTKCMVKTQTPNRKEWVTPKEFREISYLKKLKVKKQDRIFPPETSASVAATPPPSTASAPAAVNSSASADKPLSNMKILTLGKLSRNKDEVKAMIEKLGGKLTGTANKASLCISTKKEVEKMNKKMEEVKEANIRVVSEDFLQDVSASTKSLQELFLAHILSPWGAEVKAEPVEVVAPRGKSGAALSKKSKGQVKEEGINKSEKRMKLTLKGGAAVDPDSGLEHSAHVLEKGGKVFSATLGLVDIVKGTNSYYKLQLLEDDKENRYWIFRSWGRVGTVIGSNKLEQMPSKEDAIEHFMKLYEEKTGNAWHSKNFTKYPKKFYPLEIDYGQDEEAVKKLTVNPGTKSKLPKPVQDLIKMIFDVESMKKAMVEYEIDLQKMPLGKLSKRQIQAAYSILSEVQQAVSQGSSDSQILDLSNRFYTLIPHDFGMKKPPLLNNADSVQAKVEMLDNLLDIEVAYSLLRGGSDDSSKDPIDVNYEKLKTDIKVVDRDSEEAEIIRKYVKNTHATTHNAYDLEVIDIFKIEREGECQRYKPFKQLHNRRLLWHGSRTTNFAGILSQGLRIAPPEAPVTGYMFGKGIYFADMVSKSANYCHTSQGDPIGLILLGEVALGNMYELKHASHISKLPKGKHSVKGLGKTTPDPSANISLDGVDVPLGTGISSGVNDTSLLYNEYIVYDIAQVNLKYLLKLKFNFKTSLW

| IC50 [1, 4] [nM] | Kd ([2]; probe displacement HTRF) [nM] | Kd [3, 5] [nM] | IC50 [1, 6] [nM] | Kd ([2]; PARP2 probe displacement HTRF) [nM] | Kd [3, 7] [nM] | Kd ([3]; PARP1 HTRF, probe displacement HTRF) [nM] | SMILES | Selectivity ([3]; probe displacement HTRF) |
| --- | --- | --- | --- | --- | --- | --- | --- | --- |
| 1000 to 10000 | > 10000 | 1000 to 10000 | – | – | – | – | CCc1ccc(C2CCN(C3CCN(c4cnc(C(=O)NC)cc4C(F)(F)F)CC3)C2)[nH]c1=O (single isomer, unassigned) [Compound 298a] | − (− indicates a value of less than 10) |
| < 10 | 1000 to 10000 | < 10 | – | – | – | – | CCc1ccc(C2CCN(C3CCN(c4ccc(C#N)cc4Cl)CC3)C2)[nH]c1=O (single isomer, unassigned) [Compound 377b] | +++ (+++ indicate a value of at least 100) |
| < 10 | > 10000 | – | – | – | – | 10 to 100 | CNC(=O)c1ccc(N2CCC(N3CC4(c5nc6ccncc6c(=O)[nH]5)CC3C4)CC2)cn1 [Compound 304] | +++ (+++ indicate a value of at least 100) |
| < 10 | 10 to 100 | < 10 | – | – | – | – | CNC(=O)c1ccc(N2CCC(N3CCC(c4[nH]c(=O)c5cc(F)ccc5c4F)C3)CC2)cn1 (single isomer, unassigned) [Compound 370b] | ++ (++ indicates a value of 50 to less than 100) |
| 10 to 100 | 1000 to 10000 | 10 to 100 | – | – | – | – | CC(=O)NC(=O)c1ccc(N2CCC(N3CCC(c4cc5ccccc5c(=O)[nH]4)C3)CC2)cn1 (single isomer, unassigned) [Compound 333b] | +++ (+++ indicate a value of at least 100) |
| < 10 | 100 to 1000 | < 10 | – | – | – | – | CCc1ccc(C2CCN(C3CCN(c4ccc(C(=O)NC5CC5)nc4C#N)CC3)C2)[nH]c1=O (single isomer, unassigned) [Compound 409b] | +++ (+++ indicate a value of at least 100) |
| 10 to 100 | 1000 to 10000 | 10 to 100 | – | – | – | – | CCc1ccc(C2CCN(C3CCN(c4ccc(C(=O)NC5CC5)nc4)CC3)C2)[nH]c1=O (single isomer, unassigned) [Compound 338b] | ++ (++ indicates a value of 50 to less than 100) |
| < 10 | 100 to 1000 | < 10 | – | – | – | – | N#Cc1ccc(N2CCC(N3CCC(c4cc5cccc(F)c5c(=O)[nH]4)C3)CC2)c(Cl)c1 (single isomer, unassigned) [Compound 378a] | +++ (+++ indicate a value of at least 100) |
| 100 to 1000 | 1000 to 10000 | 100 to 1000 | – | – | – | – | CCc1ccc(C2CCN(C3CCN(c4ccc(C(=O)NC)cc4)CC3)C2)[nH]c1=O (single isomer, unassigned) [Compound 355a] | − (− indicates a value of less than 10) |
| 100 to 1000 | > 10000 | 100 to 1000 | – | – | – | – | CNC(=O)c1ccc(N2CCC(N3CCC(c4nc5c(c(=O)[nH]4)CN(C)C5)C3)CC2)cn1 (racemic) [Compound 294rac] | − (− indicates a value of less than 10) |

The next lines start with the compound.

| SMILES | IC50 [1, 4] [nM] | Kd ([2]; probe displacement HTRF) [nM] | Kd [3, 5] [nM] | IC50 [1, 6] [nM] | Kd ([2]; PARP2 probe displacement HTRF) [nM] | Kd [3, 7] [nM] | Kd ([3]; PARP1 HTRF, probe displacement HTRF) [nM] | Selectivity ([3]; probe displacement HTRF) |
| --- | --- | --- | --- | --- | --- | --- | --- | --- |
| CNC(=O)c1ccc(N2CCC(N3CCC(c4ccc(CCF)c(=O)[nH]4)C3)CC2)cn1 (racemic) [Compound 231rac] | < 10 | 1000 to 10000 | < 10 | – | – | – | – | +++ (+++ indicate a value of at least 100) |
| CNC(=O)c1ccc(N2CCC(N3CCC(c4nc5ccc(Cl)cc5c(=O)[nH]4)C3)CC2)cn1 (racemic) [Compound 49rac] | – | – | – | < 10 | 100 to 1000 | < 10 | – | +++ (+++ indicate a value of at least 100) |
| CNC(=O)c1ccc(N2CCC(N3CCCC(c4ncc(CC(F)(F)F)c(=O)[nH]4)C3)CC2)cn1 (single isomer, unassigned) [Compound 212b] | – | – | – | > 10000 | > 10000 | > 10000 | – | − (− indicates a value of less than 10) |
| CNC(=O)c1ccc(N2CCC(N3CCC(c4nc5c(c(C(F)(F)F)nn5C)c(=O)[nH]4)C3)CC2)cn1 (single isomer, unassigned) [Compound 187a] | – | – | – | 10 to 100 | 100 to 1000 | 10 to 100 | – | − (− indicates a value of less than 10) |
| N#Cc1ccc(N2CCC(N3CCC(c4nc5ccccc5c(=O)[nH]4)C3)CC2)cn1 (single isomer, unassigned) [Compound 69b] | – | – | – | 10 to 100 | 100 to 1000 | 10 to 100 | – | − (− indicates a value of less than 10) |
| CCc1ccc(C2CCN(C3CCN(c4cnc(C(=O)NC)nc4C)CC3)C2)[nH]c1=O (single isomer, unassigned) [Compound 246a] | 100 to 1000 | > 10000 | 100 to 1000 | – | – | – | – | + (+ indicates a value of 10 to less than 50) |
| CC(=O)Nc1ccc(N2CCC(N3CCC(c4nc5ccccc5c(=O)[nH]4)C3)CC2)cn1 (single isomer, unassigned) [Compound 262b] | 100 to 1000 | 1000 to 10000 | 100 to 1000 | – | – | – | – | + (+ indicates a value of 10 to less than 50) |
| CNC(=O)c1ccc(N2CCC(N3CCC(c4cc5c(F)cccc5c(=O)[nH]4)C3)CC2)cn1 (single isomer, unassigned) [Compound 172a] | – | – | – | < 10 | 1000 to 10000 | < 10 | – | +++ (+++ indicate a value of at least 100) |
| CNC(=O)c1ccc(N2CCC(N3CCC(c4cc5cccc(O)c5c(=O)[nH]4)C3)CC2)cn1 (racemic) [Compound 271rac] | < 10 | 100 to 1000 | < 10 | – | – | – | – | +++ (+++ indicate a value of at least 100) |
| CNC(=O)c1ccc(N2CCC(N3CCC(c4ccc(Cl)c(=O)[nH]4)C3)CC2)cn1 (single isomer, unassigned) [Compound 201b] | – | – | – | < 10 | 1000 to 10000 | < 10 | – | +++ (+++ indicate a value of at least 100) |
| CNC(=O)c1ccc(N2CCC(N3CCCC(c4nc5c(c(=O)[nH]4)CCCC5)C3)CC2)cn1 (single isomer, unassigned) [Compound 146a] | – | – | – | 100 to 1000 | 1000 to 10000 | 100 to 1000 | – | − (− indicates a value of less than 10) |
| CNC(=O)c1ccc(N2CCC(N3CCCC(c4nc5cc(F)ccc5c(=O)[nH]4)C3)CC2)cn1 (single isomer, unassigned) [Compound 108a] | – | – | – | 100 to 1000 | > 10000 | 100 to 1000 | – | − (− indicates a value of less than 10) |
| CNC(=O)c1cc(C)c(N2CCC(N3CCC(c4cc5ccncc5c(=O)[nH]4)C3)CC2)c(C)n1 (racemic) [Compound 211rac] | – | – | – | < 10 | 100 to 1000 | < 10 | – | +++ (+++ indicate a value of at least 100) |
| CNC(=O)c1ccc(N2CCC(N3CCC(c4nc5c(C)cn(C)c5c(=O)[nH]4)C3)CC2)cn1 (racemic) [Compound 163rac] | – | – | – | < 10 | 100 to 1000 | < 10 | – | +++ (+++ indicate a value of at least 100) |
| CNC(=O)c1ccc(OCCN2CCCC(c3nc4ccccc4c(=O)[nH]3)C2)cn1 (single isomer, unassigned) [Compound 65b] | – | – | – | 100 to 1000 | 1000 to 10000 | 100 to 1000 | – | + (+ indicates a value of 10 to less than 50) |
| CNC(=O)c1ccc(N2CCC(N3CCCC(c4nc5c(Cl)cccc5c(=O)[nH]4)C3)CC2)cn1 (single isomer, unassigned) [Compound 44b] | – | – | – | 10 to 100 | 1000 to 10000 | 10 to 100 | – | + (+ indicates a value of 10 to less than 50) |

From US20250152585A1, “PHARMACEUTICAL COMPOUND” (Duke Street Bio Limited, priority 2022, published 2025)
